Patent publication US7708989B2, “Methods of treating vascular diseases characterized by nitric oxide insufficiency” (NitroMed, Inc., priority 1999, dated 2010)
“Also recorded” adds a separate entry of the source.

Experiments:
[1] = cited from earlier work
forearm microvessels [2] = assay: Forearm blood flow responses by venous occlusion plethysmography in normotensive white and black patients; assay type: in vivo, human; conditions: 46 normotensive white and black patients matched for age and gender
Experimental: FIGS. 3A and 3B show forearm blood flow responses to nitroprusside (FIG. 3A) and methacholine (FIG. 3B) that were assessed by venous occlusion plethysmography in 25 white and 21 black patients without hypertension.
To investigate the issue of whether NO deficiency is a primary or secondary phenomenon in hypertensive black patients, 46 normotensive white and black patients who were matched for age and gender were compared. […] These findings are consistent with recently published results by other investigators (Lang et al, N EngI J Med, 333:155-160 (1995); Cardillo et al, Hypertension 31:1235-1239 (1998)).

forearm microvessels [3] = assay: Forearm microvascular vasodilator responses in salt-sensitive versus salt-resistant normotensive black patients; assay type: in vivo, human
Experimental: To explore the relation between salt-sensitivity and endothelium-derived NO action in black patients prior to the development of hypertension, the blood pressure response to salt-loading and salt-deprivation using an established inpatient protocol (Weinberger et al, Hypertension, 8:II-127-II-134 (1986)) in a group of normotensive black patients was assessed. Briefly, blood pressure was continuously monitored non-invasively during a salt load (sodium 458 mEq over 24 hours) and during a period of salt depletion (furosemide treatment and sodium intake 10 mEq over 24 hours). Patients were considered to be salt-sensitive if mean blood pressure was at least 10 mm Hg higher during the salt loading period (Weinberger et al, Hypertension, 8:II-127-II-134 (1986)).

forearm microvessels [4] = assay: Forearm blood flow responses to intra-arterial infusions by venous occlusion plethysmography in white and black hypertensive patients; assay type: in vivo, human; conditions: intra-arterial infusion
conduit arteries = assay: Conduit vessel function by brachial ultrasound technique (nitroglycerin-mediated dilation); assay type: in vivo, human; conditions: for NTG-response (%): mean ± SD
Source text: The effects of hypertension and race on conduit vessel function were examined using a well-established brachial ultrasound technique (Vita et al, Lanzer & Lipton, Eds., Diagnostics of Vascular Diseases: Principles and Technology. Berlin:Springer-Verlag, pp.249-259 (1996)) in 370 patients (178 black, 192 white). […] Further, systolic blood pressure was inversely correlated with flow-mediated dilation (r=−0.30, P<0.001) and nitroglycerin-mediated dilation (r=−0.33, P<0.001). Diastolic pressure correlated to a similar extent with vascular function. By multiple linear regression analysis, vessel size and systolic blood pressure were the only independent predictors of flow-mediated dilation in this sizable group of patients.

## O=[N+]([O-])O[C@H]1CO[C@H]2[C@@H]1OC[C@H]2O[N+](=O)[O-] [isosorbide dinitrate, 1,4,3,6-dianhydro-D-glucitol-2,5-dinitrate]
[1]; organic solvents such as ethanol, ether and chloroform
  solubility in organic solvents: freely soluble
[1]; water
  solubility in water: sparingly soluble

## CC(=O)OC(C)C[N+](C)(C)C (stereo not shown) [methacholine]
Forearm microvessels [2]
  vasodilator response, black compared to white normotensive patients: no racial difference; also recorded: not significantly different
Forearm microvessels [3]; normotensive black patients, repeated measures ANOVA
  vasodilator response, salt-sensitive compared to salt-resistant patients: trends for impaired vasodilator responses
Forearm microvessels [4]; 36 white and black hypertensive patients
  vasodilator (forearm blood flow) response, black compared to white hypertensive patients: impaired; also recorded: markedly worse
Forearm microvessels [4]; hypertensive versus normotensive controls
  dilator response, hypertensive patients compared to age-matched normotensive controls: significantly reduced

## O=[N+]([O-])OCC(CO[N+](=O)[O-])O[N+](=O)[O-] [nitroglycerin]
Conduit arteries; 370 patients (178 black, 192 white)
  nitroglycerin-mediated dilation according to race: no significant differences
Conduit arteries; Black Patients, Hypertensive, p < 0.001 compared to race matched normotensives
  NTG-response (%): 16.4 ± 7.1 %
Conduit arteries; Black Patients, Normotensive
  NTG-response (%): 20.6 ± 8.4%
Conduit arteries; White Patients, Hypertensive, p < 0.001 compared to race matched normotensives
  NTG-response (%): 14.6 ± 6.2 %
Conduit arteries; White Patients, Normotensive
  NTG-response (%): 18.1 ± 8.1%
Conduit arteries; hypertensive versus normotensive patients
  effect of hypertension on nitroglycerin-mediated dilation: highly significant reduction

## COc1ccc(CCN(C)CCCC(C#N)(c2ccc(OC)c(OC)c2)C(C)C)cc1OC (stereo not shown) [verapamil]
Forearm microvessels [3]; human, in vivo
  vasodilator response, salt-sensitive compared to salt-resistant patients: equivalent
